Results reported in ChEMBL document CHEMBL1201862, “PubChem BioAssay data set” (2004).
Structures can show the parent of a compound that is named as a salt.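 Protocol summary: plate cells (96-well), add compound at 5 concentrations, incubate 48 h, interpolate endpoints linearly. GI50 is the concentration that inhibits growth by half.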 The source made the active and inactive calls. Rule as the data show it: active = GI50 up to about 1.1 µM and inactive = higher.

What was measured:
Experiment in all cases: NCI-60 cell line screen, 48 h
[1] = test system: CAKI-1
[2] = test system: NCI/ADR-RES
[3] = test system: Hs-578T
[4] = test system: DU-145
[5] = test system: ACHN
[6] = test system: HCT-116
[7] = test system: IGROV-1
[8] = test system: M14
[9] = test system: K562
[10] = test system: MDA-N
[11] = test system: A549
[12] = test system: SK-OV-3
[13] = test system: UACC-62
[14] = test system: EKVX
[15] = test system: SF-268
[16] = test system: Malme-3M
[17] = test system: HL-60
[18] = test system: HCC 2998
[19] = test system: CCRF-CEM
[20] = test system: SR

Compound	GI50 [1]	GI50 [2]	GI50 [3]	GI50 [4]	GI50 [5]	GI50 [6]	GI50 [7]	GI50 [8]	GI50 [9]	GI50 [10]	GI50 [11]	GI50 [12]	GI50 [13]	GI50 [14]	GI50 [15]	GI50 [16]	GI50 [17]	GI50 [18]	GI50 [19]	GI50 [20]
CCc1ncc(CO)n1Cc1cccc2ccccc12	> 100 µM (inactive)	50.9 µM (inactive)	> 100 µM (inactive)	> 100 µM (inactive)	> 100 µM (inactive)	> 100 µM (inactive)	> 100 µM (inactive)	> 100 µM (inactive)	> 100 µM (inactive)	> 100 µM (inactive)	> 100 µM (inactive)	> 100 µM (inactive)	> 100 µM (inactive)	> 100 µM (inactive)	> 100 µM (inactive)	> 100 µM (inactive)				
COc1ccc(C2OC(c3ccncc3)=NN2C)cc1F (centres undefined)	51.4 µM (inactive)	> 100 µM (inactive)	> 100 µM (inactive)	> 100 µM (inactive)	> 100 µM (inactive)	> 100 µM (inactive)	> 100 µM (inactive)	> 100 µM (inactive)	> 100 µM (inactive)	> 100 µM (inactive)	> 100 µM (inactive)	> 100 µM (inactive)	> 100 µM (inactive)	> 100 µM (inactive)	> 100 µM (inactive)	> 100 µM (inactive)	> 100 µM (inactive)	> 100 µM (inactive)	> 100 µM (inactive)	
COc1ccc(C2=Cc3nc2c(-c2ccccc2)c2ccc([nH]2)c(-c2ccccc2)c2nc(c(-c4ccccc4)c4ccc([nH]4)c3-c3ccccc3)C=C2)cc1	> 100 µM (inactive)		> 100 µM (inactive)	> 100 µM (inactive)	> 100 µM (inactive)	> 100 µM (inactive)	> 100 µM (inactive)	> 100 µM (inactive)	> 100 µM (inactive)	> 100 µM (inactive)	> 100 µM (inactive)	> 100 µM (inactive)	> 100 µM (inactive)	> 100 µM (inactive)	51.4 µM (inactive)	> 100 µM (inactive)	> 100 µM (inactive)	> 100 µM (inactive)	> 100 µM (inactive)	> 100 µM (inactive)
O=c1c2c3ccccc3[nH]c2c2cccc3c2n1CCC3		50 µM (inactive)	21.2 µM (inactive)	> 100 µM (inactive)	41.1 µM (inactive)	36.6 µM (inactive)	84.5 µM (inactive)	60.5 µM (inactive)	32.3 µM (inactive)	66.5 µM (inactive)	48.1 µM (inactive)	83.6 µM (inactive)	36.5 µM (inactive)	20.6 µM (inactive)	33 µM (inactive)	22 µM (inactive)		29.2 µM (inactive)	30.5 µM (inactive)	25.9 µM (inactive)
Cc1cc(C)c(S(=O)(=O)N(CCCCCCN)OCCCON(CCCCCCN)S(=O)(=O)c2c(C)cc(C)cc2C)c(C)c1	1.94 µM (inactive)	13.2 µM (inactive)	2.11 µM (inactive)	1.37 µM (inactive)	2.55 µM (inactive)	1.69 µM (inactive)	1.65 µM (inactive)	1.66 µM (inactive)	3.61 µM (inactive)	1.88 µM (inactive)	1.72 µM (inactive)	1.71 µM (inactive)	1.74 µM (inactive)	1.79 µM (inactive)	1.78 µM (inactive)	1.45 µM (inactive)	2.15 µM (inactive)		2.29 µM (inactive)	2.51 µM (inactive)
Cc1ccc(C2SCc3nc4ccccc4n32)cc1 (centres undefined)	1.52 µM (inactive)	2.37 µM (inactive)	2.61 µM (inactive)	4.29 µM (inactive)	5.32 µM (inactive)	3.11 µM (inactive)	3.18 µM (inactive)	4.49 µM (inactive)	0.671 µM (active)	0.407 µM (active)	6.43 µM (inactive)	7.8 µM (inactive)	2.43 µM (inactive)	5.35 µM (inactive)	11.7 µM (inactive)	4.04 µM (inactive)	1.6 µM (inactive)	10.8 µM (inactive)	2.79 µM (inactive)	
Nc1nc(N)nc(CCCCc2nc(N)nc(N)n2)n1	> 100 µM (inactive)	> 100 µM (inactive)	> 100 µM (inactive)	> 100 µM (inactive)	> 100 µM (inactive)	> 100 µM (inactive)	> 100 µM (inactive)	> 100 µM (inactive)	> 100 µM (inactive)	> 100 µM (inactive)	> 100 µM (inactive)	> 100 µM (inactive)	> 100 µM (inactive)	> 100 µM (inactive)	> 100 µM (inactive)	> 100 µM (inactive)	> 100 µM (inactive)		> 100 µM (inactive)	> 100 µM (inactive)
CC1=NN(c2cccc(Cl)c2)C(=N/c2nc3ccccc3s2)/C1=C\C=C\c1ccccc1	28.4 µM (inactive)	59.2 µM (inactive)	24.3 µM (inactive)	50.4 µM (inactive)	28 µM (inactive)	28.2 µM (inactive)	20 µM (inactive)	42.3 µM (inactive)	9.23 µM (inactive)	37.2 µM (inactive)		34.6 µM (inactive)		47.6 µM (inactive)	35.8 µM (inactive)		13.8 µM (inactive)		1.77 µM (inactive)	0.359 µM (active)
Cc1cc2nc(N3C(=O)/C(=C/c4ccc(Oc5ccccc5)cc4)N=C3c3ccccc3)sc2cc1C	50.5 µM (inactive)	26.2 µM (inactive)	52.2 µM (inactive)	> 100 µM (inactive)	> 100 µM (inactive)	40.6 µM (inactive)	37.4 µM (inactive)	51.8 µM (inactive)	24.5 µM (inactive)	25.2 µM (inactive)	48.2 µM (inactive)	> 100 µM (inactive)	35.4 µM (inactive)	42.6 µM (inactive)	63.8 µM (inactive)	70.6 µM (inactive)	23.6 µM (inactive)	40 µM (inactive)	26.7 µM (inactive)	
O=C(O)/C(O)=C\C(=O)c1ccc(Br)cc1	> 100 µM (inactive)	> 100 µM (inactive)	> 100 µM (inactive)	> 100 µM (inactive)	> 100 µM (inactive)	> 100 µM (inactive)	> 100 µM (inactive)	> 100 µM (inactive)	> 100 µM (inactive)	> 100 µM (inactive)	> 100 µM (inactive)	> 100 µM (inactive)	> 100 µM (inactive)	2.98 µM (inactive)	> 100 µM (inactive)	> 100 µM (inactive)	> 100 µM (inactive)	> 100 µM (inactive)	68.7 µM (inactive)	
Nc1nc(Cl)cc(NCC2(CO)CCC(CCc3ccccc3)C2)n1 (centres undefined)	13.5 µM (inactive)	11.9 µM (inactive)	21.3 µM (inactive)	14.8 µM (inactive)	13.8 µM (inactive)	2.29 µM (inactive)	17.5 µM (inactive)	13.7 µM (inactive)	0.962 µM (active)	14.2 µM (inactive)	12.6 µM (inactive)	17.5 µM (inactive)	13.2 µM (inactive)	0.771 µM (active)	16.6 µM (inactive)	16 µM (inactive)	6.21 µM (inactive)	17.5 µM (inactive)		
CC[C@]12CN3CCc4c([nH]c5ccccc45)[C@@](C(=O)OC)(c4cc5c(cc4OC)N(C)[C@H]4[C@@](O)(C(=O)OC)[C@H](OC(C)=O)[C@]6(CC)C=CCN7CC[C@]54[C@@H]76)CC(C3)[C@H]1O2 (some centres undefined) [VINLEUROSINE SULFATE]	2.16 µM (inactive)	16.1 µM (inactive)	0.108 µM (active)	< 0.01 µM (active)	1.33 µM (inactive)	< 0.01 µM (active)	0.441 µM (active)	0.171 µM (active)	< 0.01 µM (active)	< 0.01 µM (active)	0.394 µM (active)	0.12 µM (active)	0.0368 µM (active)	10.8 µM (inactive)	1.02 µM (active)		< 0.01 µM (active)	< 0.01 µM (active)	< 0.019 µM (active)	
COC1(OC)c2occc2C(=N)c2ccc(=O)oc21	> 100 µM (inactive)		> 100 µM (inactive)	> 100 µM (inactive)	92.3 µM (inactive)	> 100 µM (inactive)	> 100 µM (inactive)	> 100 µM (inactive)	> 100 µM (inactive)	> 100 µM (inactive)	> 100 µM (inactive)	> 100 µM (inactive)	> 100 µM (inactive)	> 100 µM (inactive)	> 100 µM (inactive)	18.2 µM (inactive)	45.8 µM (inactive)	> 100 µM (inactive)	85.9 µM (inactive)	71.8 µM (inactive)
COc1cccc(C2c3cc4c(cc3OC(N3CCCC3)C2c2ccccc2)OCO4)c1O (centres undefined)	2.88 µM (inactive)	9.91 µM (inactive)	0.279 µM (active)	11.9 µM (inactive)	3.72 µM (inactive)	4.21 µM (inactive)	7.59 µM (inactive)	11 µM (inactive)	5.35 µM (inactive)	8.18 µM (inactive)	11.6 µM (inactive)		14.1 µM (inactive)	16.6 µM (inactive)	9.02 µM (inactive)			11 µM (inactive)	5.13 µM (inactive)	4.76 µM (inactive)
O=C(/C=C\Nc1ccccc1O)C(Cl)(Cl)Cl	34.9 µM (inactive)	99.3 µM (inactive)	69 µM (inactive)	45.8 µM (inactive)	26.9 µM (inactive)	37.8 µM (inactive)	43.4 µM (inactive)	38.9 µM (inactive)	36.7 µM (inactive)	25.3 µM (inactive)	48.2 µM (inactive)	53.2 µM (inactive)	< 0.01 µM (active)	45.7 µM (inactive)	> 100 µM (inactive)	82 µM (inactive)	21.8 µM (inactive)	26.3 µM (inactive)	28.1 µM (inactive)	
